US20080293572A1, “Herbicidal Mixtures” (BASF SE, priority 2005, published 2008)

Assays:
Assay in all cases: Greenhouse post-emergence herbicidal trial
ECHCG = type: in vivo, Echinochloa crus-galli; conditions: MSO or COC 1.25% where in mixture, scale 0-100
Excerpt: (§1) The culture vessels used were plastic flowerpots filled, as substrate, with sandy loam comprising about 3% of humus. The seeds of the test plants were sown separated according to species.
(§2) For the post-emergence treatment, the test plants were initially cultivated to a height of 3-17 cm according to their habit and only then treated with the active compounds, which had been suspended or emulsified in water. To this end, the test plants were either sown directly and cultivated in the same vessels, or they were initially cultivated separately as seedlings and transplanted into the test vessels a few days prior to the treatment. According to the species, the plants were kept at temperatures of from 15° C. to 25° C. or from 20 to 35° C. The trial period extended over 3 weeks. During this time the plants were tended and their response to the individual treatments was evaluated.
(§3) The application in the greenhouse was carried out at a spray liquor application rate of 200 l/ha.

XANST = type: in vivo, Xanthium strumarium; conditions: XANST; a) 12.5 g/ha, MSO or COC 1.25% where in mixture, scale 0-100
Excerpt: as §1, §2, §3

HELAN = type: in vivo, Helianthus annua; conditions: HELAN; a) 6.25 g/ha, MSO or COC 1.25% where in mixture, scale 0-100
Excerpt: as §1, §2, §3

PANDI = type: in vivo, Panicum dichotomiflorum; conditions: PANDI; a) 25 g/ha, MSO or COC 1.25% where in mixture, scale 0-100
Excerpt: as §1, §2, §3

SORBI = type: in vivo, Sorghum bicolor; conditions: SORBI; a) 25 g/ha, MSO or COC 1.25% where in mixture, scale 0-100
Excerpt: as §1, §2, §3

SOLNI = type: in vivo, Solanum nigrum; conditions: SOLNI; a) 3.125 g/ha, MSO or COC 1.25% where in mixture, scale 0-100
Excerpt: as §1, §2, §3

SETVI = type: in vivo, Setaria viridis; conditions: SETVI; a) 12.5 g/ha, MSO or COC 1.25% where in mixture, scale 0-100
Excerpt: as §1, §2, §3

AMBEL = type: in vivo, Ambrosia elatior; conditions: AMBEL; a) 3.125 g/ha, MSO or COC 1.25% where in mixture, scale 0-100
Excerpt: as §1, §2, §3

PANMI = type: in vivo, Panicum milliaceum; conditions: PANMI; a) 12.5 g/ha, MSO or COC 1.25% where in mixture, scale 0-100
Excerpt: as §1, §2, §3

Molecule Cc1c(C(=O)c2cnn(C)c2O)ccc(S(C)(=O)=O)c1C1=NOCC1 [a)] has an observed effect (ECHCG; ECHCG; a) 12.5 g/ha) of 0, an observed effect (ECHCG; ECHCG; a) 25 g/ha) of 0 and an observed effect (XANST) of 65. It also gave an observed effect (HELAN) of 30, an observed effect (PANDI) of 0 and an observed effect (SORBI) of 10. For the same molecule, the observed effect (SOLNI) was 30, the observed effect (SETVI) was 60 and the observed effect (AMBEL) was 60. The observed effect (PANMI) was 75.
